# Source: US20140296212A1, “SUBSTITUTED PHENOXYPROPYLCYCLOAMINE DERIVATIVES AS HISTAMINE-3 (H3) RECEPTOR LIGANDS” (CEPHALON, INC., priority 2009, published 2014)
# Read-outs that look alike come from different tables or passages of the source.
# What was measured:
# [1] = molecular target: T1, rat histamine H3 receptor (Rattus norvegicus, UniProt Q9QYN8); test: Rat H3 radioligand binding ([3H]-N-alpha-methylhistamine, SPA)
# T1 construct: encoding the entire 445-amino-acid rat histamine H3 receptor; expressed in transfected cells
# T1 sequence (Q9QYN8 whole entry): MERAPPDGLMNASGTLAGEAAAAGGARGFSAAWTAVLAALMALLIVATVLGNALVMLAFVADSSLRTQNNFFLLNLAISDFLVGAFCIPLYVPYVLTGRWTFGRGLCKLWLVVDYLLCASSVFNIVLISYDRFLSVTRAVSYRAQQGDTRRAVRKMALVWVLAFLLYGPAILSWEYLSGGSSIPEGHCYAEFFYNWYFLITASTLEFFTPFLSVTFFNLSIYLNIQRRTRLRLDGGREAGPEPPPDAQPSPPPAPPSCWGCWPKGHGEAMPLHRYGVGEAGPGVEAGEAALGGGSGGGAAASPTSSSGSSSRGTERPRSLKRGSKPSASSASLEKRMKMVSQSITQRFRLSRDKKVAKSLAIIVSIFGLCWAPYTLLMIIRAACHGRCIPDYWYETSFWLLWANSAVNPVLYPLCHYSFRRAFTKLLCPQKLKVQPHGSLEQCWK
# Text: The rat H3 receptor cDNA was PCR amplified from reverse-transcribed RNA pooled from rat thalamus, hypothalamus, striatum and prefrontal cortex with a sequence corresponding to by #338-1672 of Genbank file #NM_053506, encoding the entire 445-amino-acid rat histamine H3 receptor. This was engineered into the pIRES-neo3 mammalian expression vector, which was stably transfected into the CHO-A3 cell line (Euroscreen, Belgium), followed by clonal selection by limiting dilution. Cells were harvested and cell pellets were frozen (−80° C.). Cell pellets were resuspended in 5 mM Tris-HCl, pH 7.5 with 5 nM EDTA and a cocktail of protease inhibitors (Complete Protease Inhibitor Tablets, Roche Diagnostics). Cells were disrupted using a polytron cell homogenizer and the suspension was centrifuged at 1000×g for 10 minutes at 4° C. The pellet was discarded and the supernatant centrifuged at 40,000×g for 30 min at 4° C. This membrane pellet was washed in membrane buffer containing 50 mM Tris-HCl, pH 7.5 with 0.6 mM EDTA, 5 mM MgCl2 and protease inhibitors, recentrifuged as above and the final pellet resuspended in membrane buffer plus 250 mM sucrose and frozen at −80° C.
# (§1) Membranes were resuspended in 50 mM Tris HCl (pH 7.4), 5 mM MgCl2, 0.1% BSA. The membrane suspensions (10 μg protein per well) were incubated in a 96 well microtiter plate with [^3H]-N-alpha-methylhistamine (approximately 1 nM final concentration), test compounds at various concentrations (0.01 nM-30 μM) and scintillation proximity beads (Perkin Elmer, FlashBlueGPCR Scintillating Beads) in a final volume of 80 μl for 4 hours at room temperature, protected from light. Non-specific binding was determined in the presence of 10 μM clobenpropit. Radioligand bound to receptor, and therefore in proximity to the scintillation beads, was measured using a MicroBeta scintillation counter.
# human H3 receptor = molecular target: T2, human H3 receptor (Homo sapiens, UniProt Q9Y5N1); test: Human H3 radioligand binding ([3H]-N-alpha-methylhistamine, SPA); conditions: membranes of CHO cells expressing human H3
# T2 construct: expressed in transfected cells
# T2 sequence (Q9Y5N1 whole entry): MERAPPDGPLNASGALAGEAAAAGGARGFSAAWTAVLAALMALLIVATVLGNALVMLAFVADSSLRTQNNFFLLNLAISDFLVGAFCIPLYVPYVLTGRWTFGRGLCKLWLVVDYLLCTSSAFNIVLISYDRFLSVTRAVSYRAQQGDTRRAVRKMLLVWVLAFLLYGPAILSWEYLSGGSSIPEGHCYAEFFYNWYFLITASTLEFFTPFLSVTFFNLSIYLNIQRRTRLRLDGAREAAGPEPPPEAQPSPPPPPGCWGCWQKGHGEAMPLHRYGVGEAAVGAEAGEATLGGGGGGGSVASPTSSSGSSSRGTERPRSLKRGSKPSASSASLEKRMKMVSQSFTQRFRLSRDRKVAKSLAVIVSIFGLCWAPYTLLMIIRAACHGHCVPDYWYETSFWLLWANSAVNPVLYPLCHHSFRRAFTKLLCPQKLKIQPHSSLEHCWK
# Method: Cell pellets were resuspended in 5 mM Tris-HCl, pH 7.5 with 5 nM EDTA and a cocktail of protease inhibitors (Complete Protease Inhibitor Tablets, Roche Diagnostics). Cells were disrupted using a polytron cell homogenizer and the suspension was centrifuged at 1000×g for 10 minutes at 4° C. The pellet was discarded and the supernatant centrifuged at 40,000×g for 30 min at 4° C. This membrane pellet was washed in membrane buffer containing 50 mM Tris-HCl, pH 7.5 with 0.6 mM EDTA, 5 mM MgCl2 and protease inhibitors, recentrifuged as above and the final pellet resuspended in membrane buffer plus 250 mM sucrose and frozen at −80° C.
# as §1
# [2] = membranes of CHO-A3 cells expressing rat H3, [3H]-N-alpha-methylhistamine, read-out: Rat H3 Ki
SMILES,"Ki [1, 2]",Ki (human H3 receptor),Ki [1]
CC1CCCN1CCCOc1ccc(C(CN2CCOCC2)=NOC(C)(C)C)cc1 (racemic) [Example 165],0.0001 to 0.1 µM,0.0001 to 0.1 µM,–
"CC1CCCN1CCCOc1ccc(C(=O)CN2CCOCC2)cc1 (stereo not shown) [Example 1, 1-{4-[3-(2-Methyl-pyrrolidin-1-yl)-propoxy]-phenyl}-2-morpholin-4-yl-ethanone]",–,–,0.0001 to 0.1 µM
"C[C@@H]1CCCN1CCCOc1ccc(C(=O)CN2CCCCC2)cc1 [Example 8, 1-{4-[3-((R)-2-Methyl-pyrrolidin-1-yl)-propoxy]-phenyl}-2-piperidin-1-yl-ethanone]",0.0001 to 0.1 µM,0.0001 to 0.1 µM,–
"O=C(CN1CCOCC1)c1ccc(OCCCN2CCCC2)cc1 [Example 15, 2-Morpholin-4-yl-1-[4-(3-pyrrolidin-1-yl-propoxy)-phenyl]-ethanone]",0.501 to 1 µM,0.101 to 0.5 µM,–
"C[C@@H]1CCCN1CCCOc1ccc(C(=O)CN2CCCC2=O)cc1 [Example 21, 1-(2-{4-[3-((R)-2-Methyl-pyrrolidin-1-yl)-propoxy]-phenyl}-2-oxo-ethyl)-pyrrolidin-2-one]",0.101 to 0.5 µM,0.0001 to 0.1 µM,–
"C[C@@H]1CCCN1CCCOc1ccc(C(=O)CN2CCCCC2=O)cc1 [Example 22, 1-(2-{4-[3-((R)-2-Methyl-pyrrolidin-1-yl)-propoxy]-phenyl}-2-oxo-ethyl)-piperidin-2-one]",0.101 to 0.5 µM,0.0001 to 0.1 µM,–
"CC(C(=O)c1ccc(OCCCN2CCCCC2)cc1)N1CCOCC1 (stereo not shown) [Example 26, 2-Morpholin-4-yl-1-[4-(3-piperidin-1-yl-propoxy)-phenyl]-propan-1-one]",–,0.0001 to 0.1 µM,–
"CC1CCCN1CCCOc1ccc(C(=O)C(C)N2CCOCC2)cc1 (stereo not shown) [Example 27, 1-{4-[3-(2-Methyl-pyrrolidin-1-yl)-propoxy]-phenyl}-2-morpholin-4-yl-propan-1-one]",–,0.0001 to 0.1 µM,0.0001 to 0.1 µM
"CC1CCCN1CCCOc1ccc(C(=O)C(C)N2CCN(c3ccccc3)CC2)cc1 (stereo not shown) [Example 28, 1-{4-[3-(2-Methyl-pyrrolidin-1-yl)-propoxy]-phenyl}-2-(4-phenyl-piperazin-1-yl)-propan-1-one]",–,0.0001 to 0.1 µM,–
"C[C@@H]1CCCN1CCCOc1ccc(C(=O)CN2CCOC(c3ccccc3)C2)cc1 (stereo partly drawn) [Example 29, 1-{4-[3-((R)-2-Methyl-pyrrolidin-1-yl)-propoxy]-phenyl}-2-(2-phenyl-morpholin-4-yl)-ethanone]",0.0001 to 0.1 µM,0.0001 to 0.1 µM,–
"CC(C(=O)c1ccc(OCCCN2CCCC2)cc1)N1CCN(c2ccccc2)CC1 (stereo not shown) [Example 30, 2-(4-Phenyl-piperazin-1-yl)-1-[4-(3-pyrrolidin-1-yl-propoxy)-phenyl]-propan-1-one]",–,0.0001 to 0.1 µM,–
"CC(C(=O)c1ccc(OCCCN2CCCCC2)cc1)N1CCN(c2ccccc2)CC1 (stereo not shown) [Example 31, 2-(4-Phenyl-piperazin-1-yl)-1-[4-(3-piperidin-1-yl-propoxy)-phenyl]-propan-1-one]",–,0.0001 to 0.1 µM,–
"CC(=O)N1CCN(C(C)C(=O)c2ccc(OCCCN3CCCCC3)cc2)CC1 (stereo not shown) [Example 32, 2-(4-Acetyl-piperazin-1-yl)-1-[4-(3-piperidin-1-yl-propoxy)-phenyl]-propan-1-one]",–,0.0001 to 0.1 µM,–
"CC(=O)N1CCN(C(C)C(=O)c2ccc(OCCCN3CCCC3C)cc2)CC1 (stereo not shown) [Example 33, 2-(4-Acetyl-piperazin-1-yl)-1-{4-[3-(2-methyl-pyrrolidin-1-yl)-propoxy]-phenyl}-propan-1-one]",–,0.0001 to 0.1 µM,–
"CC(C(=O)c1ccc(OCCCN2CCCCC2)cc1)N1CCSCC1 (stereo not shown) [Example 34, 1-[4-(3-Piperidin-1-yl-propoxy)-phenyl]-2-thiomorpholin-4-yl-propan-1-one]",–,0.0001 to 0.1 µM,–
"CC1CCCN1CCCOc1ccc(C(=O)C(C)N2CCSCC2)cc1 (stereo not shown) [Example 35, 1-{4-[3-(2-Methyl-pyrrolidin-1-yl)-propoxy]-phenyl}-2-thiomorpholin-4-yl-propan-1-one]",–,0.0001 to 0.1 µM,–
"CC(C(=O)c1ccc(OCCCN2CCC[C@@H]2C)cc1)N1CCCCC1=O (stereo partly drawn) [Example 36, 1-(1-Methyl-2-{4-[3-((S)-2-methyl-pyrrolidin-1-yl)-propoxy]-phenyl}-2-oxo-ethyl)-piperidin-2-one]",–,0.101 to 0.5 µM,–

SMILES,"Ki [1, 2]",Ki (human H3 receptor),Ki [1]
"C[C@@H]1CN(CC(=O)c2ccc(OCCCN3CCC[C@H]3C)cc2)C[C@H](C)O1 [Example 38, 2-((2R,6S)-2,6-Dimethyl-morpholin-4-yl)-1-{4-[3-((R)-2-methyl-pyrrolidin-1-yl)-propoxy]-phenyl}-ethanone]",0.0001 to 0.1 µM,0.0001 to 0.1 µM,–
"C[C@@H]1CCCN1CCCOc1ccc(C(=O)CN2CCO[C@@H](c3ccccc3)C2)cc1 [Example 39, 1-{4-[3-((R)-2-Methyl-pyrrolidin-1-yl)-propoxy]-phenyl}-2-((S)-2-phenyl-morpholin-4-yl)-ethanone]",0.0001 to 0.1 µM,0.0001 to 0.1 µM,–
"C[C@@H]1CCCN1CCCOc1ccc(C(=O)CN2CCO[C@H](c3ccccc3)C2)cc1 [Example 40, 1-{4-[3-((R)-2-Methyl-pyrrolidin-1-yl)-propoxy]-phenyl}-2-((R)-2-phenyl-morpholin-4-yl)-ethanone]",0.0001 to 0.1 µM,0.0001 to 0.1 µM,–
"C[C@@H]1CCCN1CCCOc1ccc(C(=O)CN2CCOCC2)cc1 [Example 41, 1-{4-[3-((R)-2-Methyl-pyrrolidin-1-yl)-propoxy]-phenyl}-2-morpholin-4-yl-ethanone]",–,–,0.0001 to 0.1 µM
"C[C@H]1CCCN1CCCOc1ccc(C(=O)CN2CCOCC2)cc1 [Example 42, 1-{4-[3-((S)-2-Methyl-pyrrolidin-1-yl)-propoxy]-phenyl}-2-morpholin-4-yl-ethanone]",–,–,0.501 to 1 µM
"C[C@@H]1CCCN1CCCOc1ccc(C(=O)CN2CCC(C#N)CC2)cc1 [Example 43, 1-(2-{4-[3-((R)-2-Methyl-pyrrolidin-1-yl)-propoxy]-phenyl}-2-oxo-ethyl)-piperidine-4-carbonitrile]",0.0001 to 0.1 µM,0.0001 to 0.1 µM,–
"CC(C)N1CCC(Oc2ccc(C(=O)CN3CCOCC3)cc2)CC1 [Example 45, 1-[4-(1-Isopropyl-piperidin-4-yloxy)-phenyl]-2-morpholin-4-yl-ethanone]",0.101 to 0.5 µM,0.0001 to 0.1 µM,–
"C[C@@H]1CCCN1CCCOc1ccc(C(=O)CN2CCC(C(F)(F)F)CC2)cc1 [Example 47, 1-{4-[3-((R)-2-Methyl-pyrrolidin-1-yl)-propoxy]-phenyl}-2-(4-trifluoromethyl-piperidin-1-yl)-ethanone]",0.0001 to 0.1 µM,0.0001 to 0.1 µM,–
CO/N=C(\CN1CCCCC1)c1ccc(OCCCN2CCC[C@H]2C)cc1 [Example 159],–,0.0001 to 0.1 µM,–
CO/N=C(/CN1CCCCC1)c1ccc(OCCCN2CCC[C@H]2C)cc1 [Example 161],–,0.0001 to 0.1 µM,–
CON=C(c1ccc(OCCCN2CCCCC2)cc1)C(C)N1CCCCC1 (stereo not shown) [Example 163],–,0.0001 to 0.1 µM,–
CC(C(=NOCc1ccccc1)c1ccc(OCCCN2CCCCC2)cc1)N1CCCCC1 (stereo not shown) [Example 164],–,0.0001 to 0.1 µM,–
CC1CCCN1CCCOc1ccc(/C(CN2CCN(c3ccccc3)CC2)=N/OC(C)(C)C)cc1 (stereo not shown) [Example 166],–,0.0001 to 0.1 µM,–
CON=C(c1ccc(OCCCN2CCCC2C)cc1)C(C)N1CCCCC1 (stereo not shown) [Example 169],–,0.0001 to 0.1 µM,–
C[C@@H]1CCCN1CCCOc1ccc(/C(CN2CCOCC2)=N/OC2CCCCC2)cc1 [Example 170],–,0.0001 to 0.1 µM,–
CC(C)O/N=C(\CN1CCOCC1)c1ccc(OCCCN2CCC[C@H]2C)cc1 [Example 171],–,0.0001 to 0.1 µM,–
